The test system of the test is ulcer. Briefly: Anti-ulcer test (restraint and water immersion ulcer in rats, i.p.). The test is classed as in vivo, Male Wistar rats. The note with it: Rattus norvegicus, ip, read-out: % Inhibition of Ulcer; for inhibition in vivo at 50 mg/kg: 50 mg/kg i.p. In outline: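 Male Wistar rats (~150 g), fasted 24 h, dosed i.p. with compound in physiological saline; 1 h later restrained and immersed to xiphisternum in 21 °C water for 6 h. Stomachs examined microscopically, ulcers scored 0–3, and percent inhibition calculated.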

The structures appear in SMILES notation. Read-outs that look alike come from different tables or passages of the source.

Regarding `COc1ccc(COc2cccc3c2C(=O)OC(C(CC(C)C)NC(=O)C(O)C2OC(=O)CC2N)C3)cc1` (centres unmarked) [IIIa-13-23], the inhibition in vivo at 50 mg/kg stood at 72%.
The same measure, in the same setting: to `CC(C)CC(NC(=O)C(O)C1OC(=O)CC1N)C1Cc2cccc(OCC3CCCO3)c2C(=O)O1` (centres unmarked) [IIIa-13-14] belongs 89%.
Still for that read-out and setting: to `CCCCCCCCCCCCCCCCCC(=O)OC(C(=O)NC(CC(C)C)C1Cc2cccc(O)c2C(=O)O1)C1C=CC(=O)O1` (centres unmarked) [IVa-1-11] belongs 33%.
`CCOc1cccc2c1C(=O)OC(C(CC(C)C)NC(=O)C(OC)C1OC(=O)CC1NC(=O)C1CCCO1)C2` (centres unmarked) [IIIa-7-6]: the inhibition in vivo at 50 mg/kg was found to be 22%.
On to `CCOc1cccc2c1C(=O)OC(C(CC(C)C)NC(=O)C(OC(=O)CC)C(O)C(N)CC(N)=O)C2` (centres unmarked) [VII-6-3], for which, where the note is “25 mg/kg i.p.”, the inhibition in vivo at 25 mg/kg stood at 66%.
On to `CCCCCCCCCCCCCCCCCCNC1CC(=O)OC1C(O)C(=O)NC(CC(C)C)C1Cc2cccc(OCCCCC)c2C(=O)O1` (centres unmarked) [IIIa-22-6], for which the inhibition in vivo at 50 mg/kg stood at 72%.
The same measure, in the same setting: to `CCOc1cccc2c1C(=O)OC(C(CC(C)C)NC(=O)C(O)C1OC(=O)CC1NC(=O)c1cccs1)C2` (centres unmarked) [IIIa-5-25] belongs 44%; to `CCOc1cccc2c1C(=O)OC(C(CC(C)C)NC(=O)C(O)C1OC(=O)CC1NC(=O)c1cccn1C(C)=O)C2` (centres unmarked) [IIIa-5-28], 44%.
For `CCCC=Cc1ccc(CNC(=O)CC(N)C(O)C(O)C(=O)NC(CC(C)C)C2Cc3cccc(O)c3C(=O)O2)cc1` (centres unmarked) [VII-1-41], the inhibition in vivo at 25 mg/kg (25 mg/kg i.p.) was 83%.
With `CCOc1cccc2c1C(=O)OC(C(CC(C)C)NC(=O)C(O)C1OC(=O)CC1NC(=O)Cc1ccc(C)cc1)C2` (centres unmarked) [IIIa-5-63], the inhibition in vivo at 50 mg/kg worked out at 33%.
Same read-out and setting: to `CC(C)CC(NC(=O)C(OC(=O)C(Cl)(Cl)Cl)C1C=CC(=O)O1)C1Cc2cccc(O)c2C(=O)O1` (centres unmarked) [IVa-1-12] belongs 44%.
The same measure, in the same setting: the value for `CCOc1cccc2c1C(=O)OC(C(CC(C)C)NC(=O)C(O)C1OC(=O)CC1NC(=O)C1CCCCC1=O)C2` (centres unmarked) [IIIa-5-33] was 44%.
On the same count and under the same terms, the value for `CCNC1CC(=O)OC1C(OCC)C(=O)NC(CC(C)C)C1Cc2cccc(OCC)c2C(=O)O1` (centres unmarked) [IIIa-24-2] was 56%.
As for `CCOc1cccc2c1C(=O)OC(C(CC(C)C)NC(=O)C(O)C1OC(=O)CC1NC(=O)C13CC4CC(CC(C4)C1)C3)C2` (centres unmarked) [IIIa-5-15], the inhibition in vivo at 50 mg/kg was found to be 33%.
Regarding `Cc1c(CC(=O)NC2CC(=O)OC2C(O)C(=O)NC(CC(C)C)C2Cc3cccc(O)c3C(=O)O2)ccc2ccccc12` (centres unmarked) [IIIa-1-21], the inhibition in vivo at 50 mg/kg was determined as 56%.
For `CC(=O)OC(C(=O)NC(CC(C)C)C1Cc2cccc(O)c2C(=O)O1)C1OC(=O)CC1NC(=O)C1CCCO1` (centres unmarked) [IIIa-2-6], the inhibition in vivo at 50 mg/kg came out at 44%.
Same read-out and setting: the value for `CCCCCCCCC=CCCCCCCCC(=O)NC1CC(=O)OC1C(O)C(=O)NC(CC(C)C)C1Cc2cccc(OC(C)=O)c2C(=O)O1` (centres unmarked) [IIIa-4-4] was 33%.
Still for that read-out and setting: the value for `CCC(=O)OC(C(=O)NC(CC(C)C)C1Cc2cccc(OC(=O)C(C)C)c2C(=O)O1)C1OC(=O)CC1NC(C)=O` (centres unmarked) [IIIa-3-2] was 33%.
With `CCCCNC(=O)CC(NC)C(O)C(O)C(=O)NC(CC(C)C)C1Cc2cccc(OCC)c2C(=O)O1` (centres unmarked) [VII-23-2], the inhibition in vivo at 25 mg/kg (25 mg/kg i.p.) was found to be 66%.
As to `CC(C)CC(NC(=O)C(O)C1OC(=O)CC1N)C1Cc2cccc(OCCCl)c2C(=O)O1` (centres unmarked) [IIIa-13-6], the inhibition in vivo at 50 mg/kg is 94%.
With `CCCCNC(=O)CC(N)C(O)C(O)C(=O)NC(CC(C)C)C1Cc2cccc(OCC)c2C(=O)O1` (centres unmarked) [VII-5-3], where the note is “25 mg/kg i.p.”, the inhibition in vivo at 25 mg/kg is 78%.
Consider `CCNC(CC(N)=O)C(O)C(OC)C(=O)NC(CC(C)C)C1Cc2cccc(OCC)c2C(=O)O1` (centres unmarked) [VII-16-1], for which the inhibition in vivo at 25 mg/kg was 56%.
With `CC(=O)Oc1cccc2c1C(=O)OC(C(CC(C)C)NC(=N)C(OC(=O)C(C)C)C(O)C(N)CC(=O)O)C2` (centres unmarked) [Vb-3-1], the inhibition in vivo at 50 mg/kg was determined as 56%.
Consider `CCCCCC(=O)OC(C)CCOc1cccc2c1C(=O)OC(C(CC(C)C)NC(=O)C(OC)C1OC(=O)CC1NC(=O)CCC)C2` (centres unmarked) [IIIa-7-15], for which the inhibition in vivo at 50 mg/kg came out at 33%.
Same read-out and setting: to `CC(=O)N1CCC(COc2cccc3c2C(=O)OC(C(CC(C)C)NC(=O)C(O)C2OC(=O)CC2N)C3)CC1` (centres unmarked) [IIIa-13-16] belongs 89%; to `CCCCCCCCCCCCCCCCCC(=O)Oc1cccc2c1C(=O)OC(C(CC(C)C)NC(=O)C(O)C1OC(=O)CC1N)C2` (centres unmarked) [IIIa-12-3], 66%.
For `CC(C)CC(NC(=O)C(O)C1OC(=O)CC1N)C1Cc2cccc(OC(=O)C(Cl)(Cl)Cl)c2C(=O)O1` (centres unmarked) [IIIa-12-9], the inhibition in vivo at 50 mg/kg was 66%.
On the same count and under the same terms, the value for `CC(=O)Oc1cccc2c1C(=O)OC(C(CC(C)C)NC(=N)C(OC(C)=O)C(O)C(CC(=O)O)NCC1CCCO1)C2` (centres unmarked) [Vb-12-2] was 56%; that for `CCNC(CC(=O)O)C(O)C(O)C(=N)NC(CC(C)C)C1Cc2cccc(OC)c2C(=O)O1` (centres unmarked) [Vb-14-1] was 89%; that for `CC(=O)Oc1cccc2c1C(=O)OC(C(CC(C)C)NC(=O)C(OC(C)=O)C1OC(=O)CC1NC(=O)c1ccc(OCCC(C)C)cc1)C2` (centres unmarked) [IIIa-3-9] was 22%.
Regarding `CC(C)CC(NC(=O)C(O)C1OC(=O)CC1NC(=O)C(Cl)(Cl)Cl)C1Cc2cccc(OCCCC3CCCC3)c2C(=O)O1` (centres unmarked) [IIIa-5-124], the inhibition in vivo at 50 mg/kg is 33%.
Take `CC(=O)Oc1cccc2c1C(=O)OC(C(CC(C)C)NC(=O)C(O)C1OC(=O)CC1N)C2` (centres unmarked) [IIIa-12-1]: the inhibition in vivo at 50 mg/kg worked out at 78%.
Same read-out and setting: to `CCC(=O)COc1cccc2c1C(=O)OC(C(CC(C)C)NC(=O)C(O)C1OC(=O)CC1N)C2` (centres unmarked) [IIIa-13-20] belongs 100%; to `CCOc1cccc2c1C(=O)OC(C(CC(C)C)NC(=O)C(O)C1OC(=O)CC1NC(=O)C1CCCCCCC1)C2` (centres unmarked) [IIIa-5-60], 44%; to `CCCCCOC(=O)c1ccc(C(=O)NC2CC(=O)OC2C(O)C(=O)NC(CC(C)C)C2Cc3cccc(OCC)c3C(=O)O2)cc1` (centres unmarked) [IIIa-5-50], 33%.
Still for that read-out and setting: the value for `CCN1CCCC(N=C(NC(CC(C)C)C2Cc3cccc(O)c3C(=O)O2)C(O)C(O)C(N)CC(=O)O)C1` (centres unmarked) [Vb-1-43] was 83%.
`COc1ccc2ncc(C(=O)NC3CC(=O)OC3C(O)C(=O)NC(CC(C)C)C3Cc4cccc(O)c4C(=O)O3)cc2c1` (centres unmarked) [IIIa-1-30]: the inhibition in vivo at 50 mg/kg was found to be 56%.
On to `CCCCOc1cccc2c1C(=O)OC(C(CC(C)C)NC(=O)C(O)C1C=CC(=O)O1)C2` (centres unmarked) [IVa-4-3], for which the inhibition in vivo at 50 mg/kg came out at 44%.
Take `CCCCCCCCCCCCCCCCCCNC(=O)CC(N)C(O)C(O)C(=O)NC(CC(C)C)C1Cc2cccc(O)c2C(=O)O1` (centres unmarked) [VII-1-6]: under “25 mg/kg i.p.”, the inhibition in vivo at 25 mg/kg stood at 89%.
As for `CC(C)CC(NC(=O)C(O)C1OC(=O)CC1NC(=O)c1cccn1C)C1Cc2cccc(O)c2C(=O)O1` (centres unmarked) [IIIa-1-29], the inhibition in vivo at 50 mg/kg turned out to be 66%.
With `CCOc1cccc2c1C(=O)OC(C(CC(C)C)NC(=O)C(O)C1OC(=O)CC1NC(=O)C1CC3C=CC1C3)C2` (centres unmarked) [IIIa-5-69], the inhibition in vivo at 50 mg/kg amounted to 33%.
On the same count and under the same terms, the value for `CCOc1cccc2c1C(=O)OC(C(CC(C)C)NC(=O)C(O)C1OC(=O)CC1NCC(Cl)(Cl)Cl)C2` (centres unmarked) [IIIa-22-13] was 78%.
As to `CCNC(CC(N)=O)C(O)C(OC(C)=O)C(=O)NC(CC(C)C)C1Cc2cccc(O)c2C(=O)O1` (centres unmarked) [VII-11-1], the inhibition in vivo at 25 mg/kg (25 mg/kg i.p.) was found to be 72%.
On to `CCCCOC(C(=O)NC(CC(C)C)C1Cc2cccc(O)c2C(=O)O1)C1OC(=O)CC1NCC` (centres unmarked) [IIIa-25-1], for which the inhibition in vivo at 50 mg/kg was found to be 66%.
On the same count and under the same terms, the value for `CCOc1cccc2c1C(=O)OC(C(CC(C)C)NC(=O)C(O)C1OC(=O)CC1NC(=O)CCC1CCCC1)C2` (centres unmarked) [IIIa-5-61] was 33%.
Regarding `CCCC=Cc1ccc(CN=C(NC(CC(C)C)C2Cc3cccc(O)c3C(=O)O2)C(O)C(O)C(N)CC(=O)O)cc1` (centres unmarked) [Vb-1-40], the inhibition in vivo at 50 mg/kg is 89%.
The same measure, in the same setting: to `COC(C(=O)NC(CC(C)C)C1Cc2cccc(OC(C)=O)c2C(=O)O1)C1OC(=O)CC1N` (centres unmarked) [IIIa-17-1] belongs 56%; to `Cc1ccc(N=C(NC(CC(C)C)C2Cc3cccc(O)c3C(=O)O2)C(O)C(O)C(N)CC(=O)O)cc1` (centres unmarked) [Vb-1-42], 83%; to `CCOC(C(=O)NC(CC(C)C)C1Cc2cccc(OC(=O)C(Cl)(Cl)Cl)c2C(=O)O1)C1OC(=O)CC1N` (centres unmarked) [IIIa-17-6], 56%.
In the case of `CC(C)CC(NC(=O)C(O)C1C=CC(=O)O1)C1Cc2cccc(OC(=O)CCC3CCCC3)c2C(=O)O1` (centres unmarked) [IVa-3-15], the inhibition in vivo at 50 mg/kg is 33%.
With `COc1cccc2c1C(=O)OC(C(CC(C)C)NC(=O)C(O)C1OC(=O)CC1NCC(Cl)(Cl)Cl)C2` (centres unmarked) [IIIa-22-7], the inhibition in vivo at 50 mg/kg worked out at 78%.
On to `CCCCCc1ccc(C(=O)NC2CC(=O)OC2C(O)C(=O)NC(CC(C)C)C2Cc3cccc(OCC)c3C(=O)O2)cc1` (centres unmarked) [IIIa-5-73], for which the inhibition in vivo at 50 mg/kg is 44%.
For `COC(C(=O)NC(CC(C)C)C1Cc2cccc(O)c2C(=O)O1)C1OC(=O)CC1N` (centres unmarked) [IIIa-16-1], the inhibition in vivo at 50 mg/kg was found to be 72%.
Same read-out and setting: to `COc1ccc(COc2cccc3c2C(=O)OC(C(CC(C)C)NC(=O)C(O)C2C=CC(=O)O2)C3)cc1` (centres unmarked) [IVa-4-23] belongs 33%.
For `CCOc1cccc2c1C(=O)OC(C(CC(C)C)NC(=O)C(O)C(O)C(N)CC(N)=O)C2` (centres unmarked) [VII-5-2], the inhibition in vivo at 25 mg/kg (25 mg/kg i.p.) was 78%.
As for `CCCCOc1cccc2c1C(=O)OC(C(CC(C)C)NC(=O)C(O)C1OC(=O)CC1N)C2` (centres unmarked) [IIIa-13-3], the inhibition in vivo at 50 mg/kg came to 100%.
The same measure, in the same setting: to `CCOc1cccc2c1C(=O)OC(C(CC(C)C)NC(=O)C(OC)C1OC(=O)CC1NC(=O)c1ccc(OCCC(C)C)cc1)C2` (centres unmarked) [IIIa-7-9] belongs 22%.
For `CC(C)CC(NC(=O)C(O)C(O)C(N)CC(=O)NCc1ccco1)C1Cc2cccc(O)c2C(=O)O1` (centres unmarked) [VII-1-14], under “25 mg/kg i.p.”, the inhibition in vivo at 25 mg/kg turned out to be 89%.
`CCCCCCCCC=CCCCCCCCCOc1cccc2c1C(=O)OC(C(CC(C)C)NC(=O)C(O)C1OC(=O)CC1NC(C)=O)C2` (centres unmarked) [IIIa-5-8]: the inhibition in vivo at 50 mg/kg turned out to be 33%.

For the origin of these results see patent US4393225A, “AI-77 Compounds and pharmaceutically acceptable salts thereof” (Asahi Kasei Kogyo Kabushiki Kaisha, priority 1979, dated 1983).
